Laboratory results: patent US20200345746A1, “Oxazine Derivative for Use in the Prevention of Alzheimer's Disease in at Risk Patents” (Novartis AG, priority 2016, published 2020)

Legend:
[1] = 3-month dose-ranging study: safety and tolerability; assay type: in vivo, human; settings: healthy elderly subjects, once-daily 2, 10, 35 and 85 mg over three months
Source text: This study is listed in ClinicalTrials.gov under the NCT02576639 Identifier code.
The primary purpose of this study was to expand on previous safety and tolerability data obtained over 2-week and 4-week duration in the first in human study and thereby allow initiation of future long-term efficacy trials in subjects at risk of AD. In addition, data relevant for Pharmacokinetic/Pharmacodynamic modeling was obtained in order to support dose selection decisions for future efficacy studies.

Aβ40 = experiment: Triton TX-100 soluble Aβ40 in APP23 mouse brain; assay type: in vivo; settings: APP23 mice
Experimental: Frozen mouse forebrains were weighed and homogenized in 9 volumes (w/v) of ice-cold TBS-Complete (20 mM Tris-HCl pH 7.4, 137 mM NaCl, 1× Complete [Protease Inhibitor Cocktail Tablets: 1 836 145, Roche Diagnostics GmbH, Penzberg, Germany]) by sonication (90% duty cycle, output control 5, 40-55 pulses, [Sonifier 450, Branson]). After homogenization several 50 μl aliquots were prepared for analysis and were stored at −80° C.
Human Aβ40 and 42 in mice was determined with the Meso Scale Discovery (MSD) 96-well MULTI-ARRAY human/rodent (6E10) Aβ40/42 Assay (Meso Scale Discovery, Rockville, Md., USA). The assay was performed according to the manufacturer's instructions except for the calibration curve and the sample preparations. TritonX-100 (TX-100) soluble Aβ40 and 42 was extracted from forebrain with 1% TX-100 using a 50 μl aliquot of each 1:10 forebrain homogenate, mixed with 50 μl 2% TX-100 in TBS complete (20 mM Tris-HCl pH 7.4, 137 mM NaCl, 1× Complete [Protease Inhibitor Cocktail Tablets: 1 836 145, Roche Diagnostics GmbH, Penzberg Germany]) to reach a final concentration of 1% TX-100 and a 1:20 forebrain dilution. The samples were incubated for 15 min on ice and vortexed every 5 min. The samples were ultra-centrifuged (100000×g, 4° C., 15 min) and 50 μl of the clear supernatants were transferred to fresh tubes. The supernatants were further diluted 1:5 in 3% Blocker A solution (from kit) to a final forebrain dilution of 1:100 and applied to the plate.
The calibration curve was prepared in a corresponding dilution of 1% Blocker A solution spiked with synthetic Aβ1-40 peptide (1.56-100 pg/ml) except for non-transgenic mouse brain samples: In this case, the calibration curve was prepared in a correspondingly diluted APP knockout mouse forebrain spiked with synthetic Aβ1-40 peptide (1.56-100 pg/ml). For all samples and standards 25 μl were applied per well. For each determination duplicate wells were done. The mean values from the duplicate wells were used for calculations. The relative units for samples and standards were imported into SOFTmax PRO 4.0 for calculation of standard curves and quantification of samples.
Brain homogenates were extracted with 1% Triton X-100 in buffer and the resulting supernatant was considered to represent soluble forms of APP metabolites. In addition to Aβ40 and 42, we determined the N-terminal APP fragments sAPPα (direct cleavage product of α-secretase) and sAPPβ (Swe) (direct product of BACE1 cleavage). […] Since no change in the APP expression and Aβ generation is known to happen during this age, it is assumed that the increased values in the vehicle group (18-20 mo old) arise from “leakage” out of the Aβ deposits (which increase several fold, see below).

IBA1 positive microglia = IBA1 positive microglia in APP23 mice; assay type: in vivo, mouse; settings: for Distal IBA1+ area / Non-plaque-associated IBA1+ area* / Plaque-associated IBA1+ area / Proximal IBA1+ area / Total IBA1+ area: normalized by total area, mean + SEM
Experimental: Amyloid plaques were stained using the same antibody and the microglia cells were detected using a rabbit anti-IBA1 antibody (reference 019-19741) from Wako Chemicals GmbH (Neuss, Germany) and diluted at 1/200 in antibody diluent. The staining protocol was exactly similar to the protocol for amyloid-beta plaques and astrocytes. The slides were scanned with the same settings.
For the beta-amyloid plaque and neuroinflammation analysis, the following sequence of steps was performed: • Slides were scanned with Hamamatsu Nanozoomer at 40× magnification. For each fluorescence labelling (DAPI, FITC and TRITC), a separate image was created • Manually outline ROIs (regions of interest) for defining cortex in brain sections for Aβ plaque assessment on the green FITC channel image, then use the resulting outline also for the other two channel images (copy resulting xml files) • Run the in-house developed ImageScope (V12.1.0.5029, Aperio Inc., USA) plug-in for creation and export of *.tif image tiles (at 10× magnification) for each of the 3 fluorescence channels
Image Batch Processing: • Obtain the combined true color image (DAPI, FITC, TRITC) for each section through accessing each individual fluorescence channel image • Segmentation of valid sample (within outlined ROI) from black unstained background • Apply adaptive thresholding technique for segmentation of objects in green channel image
(FITC-labeled Aβ plaques) • Separation of touching objects for correct subsequent individual object analysis after elimination of too small debris showing signal in the green (FITC) channel • Segmentation of TRITC-labeled objects in red channel (specific for GFAP or Iba1 staining indicating astrocytes or microglia) through morphological tophat transformation and thresholding • Feature based object classification
Computation of several morphometric and densitometric features for valid plaques • Number of plaques • “Specific optical density” which has been described to reflect the amount of protein (antigen) concentration, based on measuring and using the staining intensity of an appropriate antibody in a non-linear way (Rahier et al., 1989; Ruifrok et al., 2001) • assessment of “plaque-associated GFAP or Iba1” based on the ratio of TRITC+ signal vs plaque area, “proximal GFAP or Iba1” based on ratio of TRITC+ signal within dilation ring around plaque

in vivo = settings: C57BL/6, mouse; for AUC(0-t): po, AUCblood (AUC0-24 h)
Source text: Blood samples were used to analyze whole-blood compound levels and were obtained either from tail-vein during the in-life part into EDTA tubes (CB300, Sarstedt, Germany) or from trunk blood at the day of necropsy into EDTA Eppendorf tubes (Milian S A, CatNoTOM-14, Fisher Scientific, Wohlen, Switzerland), or into serum tubes (CB300Z, Sarstedt, Nümbrecht, Germany).
Brain was removed immediately after decapitation, rinsed with saline and sectioned sagitally down the midline. The left half of the cerebellum was used to analyze compound level and was placed into a glass tube (Chromacol, 125×5-SV T051, Welwyn Garden City, United Kingdom), weighed and frozen in dry-ice, the left half of the forebrain (without olfactory bulb) was used for Aβ analysis, and was frozen on a metal plate on dry ice and placed into protein Lo-bind tube (003 0108.116, Eppendorf, Hamburg, Germany).
Ventral and dorsal skin were taken to analyze compound level, weighed and frozen on dry-ice.
Brain samples were mixed with 2 volumes of KH2PO4 buffer and homogenized using the Covaris® device. Skin samples were mixed with approx. 6-fold volumes of methanol/water and homogenized using a Precellys tube. Either 30 μL of blood, brain or skin homogenate were spiked with a structurally related internal standard and subsequently mixed with an at least 6-fold excess volume acetonitrile for protein precipitation. The supernatant was injected directly into the LC/MS/MS system for analysis.
For tissue exposure, only data at 4 and 24 h were available.

## C[C@@]1(c2nc(NC(=O)c3ncc(C(F)(F)F)cc3Cl)ccc2F)CO[C@@](C)(C(F)(F)F)C(N)=N1 [Compound 1, N-(6-((3R,6R)-5-amino-3,6-dimethyl-6-(trifluoromethyl)-3,6-dihydro-2H-1,4-oxazin-3-yl)-5-fluoropyridin-2-yl)-3-chloro-5-(trifluoromethyl)picolinamide]
[1]
  safety and tolerability: safe and tolerated
Aβ40; 0.03 g/kg vs vehicle
  Aβ40 change vs vehicle (Triton TX-100 soluble, brain): −4.6%
Aβ40; 0.3 g/kg vs vehicle
  Aβ40 change vs vehicle (Triton TX-100 soluble, brain): −43.7%
Aβ40; high dose
  treatment effects on soluble Aβ species (brain tissue and CSF Aβ40): −43.7 to −77%
Aβ40; low dose
  treatment effects on soluble Aβ species (brain tissue and CSF Aβ40): −4.6 to −20%
IBA1 positive microglia; APP23, 0.03 g/kg food
  Distal IBA1+ area: 2.74 ± 0.42
  Non-plaque-associated IBA1+ area*: 3.98 ± 0.54
  Plaque-associated IBA1+ area: 1.79 ± 0.51
  Proximal IBA1+ area: 1.23 ± 0.22
  Total IBA1+ area: 5.76 ± 0.83
IBA1 positive microglia; APP23, 0.03 g/kg vs vehicle
  Distal IBA1+ area, change vs vehicle: −28.9%
  Non-plaque-associated IBA1+ area*, change vs vehicle: −39.2%
  Plaque-associated IBA1+ area, change vs vehicle: −40.5%
  Proximal IBA1+ area, change vs vehicle: −47.4%
  Total IBA1+ area, change vs vehicle: −37.4%
IBA1 positive microglia; APP23, 0.3 g/kg food
  Distal IBA1+ area: 5.05 ± 0.98
  Non-plaque-associated IBA1+ area*: 5.70 ± 1.00
  Plaque-associated IBA1+ area: 0.88 ± 0.19
  Proximal IBA1+ area: 0.65 ± 0.05
  Total IBA1+ area: 6.31 ± 0.92
IBA1 positive microglia; APP23, 0.3 g/kg vs vehicle
  Distal IBA1+ area, change vs vehicle: +30.7%
  Non-plaque-associated IBA1+ area*, change vs vehicle: −8.2%
  Plaque-associated IBA1+ area, change vs vehicle: −70.6%
  Proximal IBA1+ area, change vs vehicle: −72.2%
  Total IBA1+ area, change vs vehicle: −28.5%
In vivo
  Kp: 3.2
In vivo; 8 umol/kg
  AUC(0-t): 3.43 µM·h
In vivo; 50 umol/kg
  AUC(0-t): 28.9 µM·h
